The text below walks through data of patent US7589090B2, “Diaminopyrimidines as P2X3 and P2X2/3 modulators” (Roche Palo Alto LLC, priority 2007, dated 2009).

Usually melting point stands for the temperature, or range, at which the solid turns liquid.

The structures appear in SMILES notation.

For one data set, the target named is T1, human P2X2/3 receptor (Homo sapiens, UniProt P56373+Q9UBL9).
T1 construct: expressed in transfected cells; host or cells: CHO-K1
T1 sequence (Q9UBL9 1-471): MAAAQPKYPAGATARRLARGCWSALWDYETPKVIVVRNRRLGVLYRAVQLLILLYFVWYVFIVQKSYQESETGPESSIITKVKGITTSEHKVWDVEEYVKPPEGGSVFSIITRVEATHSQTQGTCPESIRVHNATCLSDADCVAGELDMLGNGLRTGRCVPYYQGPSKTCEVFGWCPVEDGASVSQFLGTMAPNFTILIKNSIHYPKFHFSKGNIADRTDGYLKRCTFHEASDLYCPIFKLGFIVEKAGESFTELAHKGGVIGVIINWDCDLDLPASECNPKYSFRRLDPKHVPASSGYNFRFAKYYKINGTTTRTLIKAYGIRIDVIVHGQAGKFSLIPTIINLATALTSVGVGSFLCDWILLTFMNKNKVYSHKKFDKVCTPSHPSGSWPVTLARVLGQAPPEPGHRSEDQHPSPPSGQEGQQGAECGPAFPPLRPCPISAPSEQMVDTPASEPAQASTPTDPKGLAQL
T1 sequence (P56373 1-397): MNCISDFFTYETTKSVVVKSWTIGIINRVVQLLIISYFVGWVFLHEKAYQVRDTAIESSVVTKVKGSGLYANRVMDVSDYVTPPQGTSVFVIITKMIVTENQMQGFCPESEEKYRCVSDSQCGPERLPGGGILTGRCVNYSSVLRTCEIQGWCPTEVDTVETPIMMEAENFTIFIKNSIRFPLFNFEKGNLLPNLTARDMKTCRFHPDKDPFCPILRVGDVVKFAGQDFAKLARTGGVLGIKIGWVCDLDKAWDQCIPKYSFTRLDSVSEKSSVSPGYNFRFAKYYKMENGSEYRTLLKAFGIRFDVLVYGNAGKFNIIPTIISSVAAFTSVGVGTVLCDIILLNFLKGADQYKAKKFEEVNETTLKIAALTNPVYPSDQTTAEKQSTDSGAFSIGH
In words: P2X2/3 FLIPR (Fluorometric Imaging Plate Reader) assay. Particulars: CHO-K1 cells transfected with human P2X2/3; agonist α,β-meATP 5 μM; FLIPR calcium fluorescence. It is filed as cell-based. As for the experimental part:
(§1) CHO-K1 cells were transfected with cloned rat P2X3 or human P2X2/3 receptor subunits and passaged in flasks. 18-24 hours before the FLIPR experiment, cells were released from their flasks, centrifuged, and resuspended in nutrient medium at 2.5×10^5 cells/ml. The cells were aliquoted into black-walled 96-well plates at a density of 50,000 cells/well and incubated overnight in 5% CO2 at 37° C. On the day of the experiment, cells were washed in FLIPR buffer (calcium- and magnesium-free Hank's balanced salt solution, 10 mM HEPES, 2 mM CaCl2, 2.5 mM probenecid; FB). Each well received 100 μl FB and 100 μl of the fluorescent dye Fluo-3 AM [2 μM final conc.]. […]
(§2) Test compounds (dissolved in DMSO at 10 mM and serially diluted with FB) or vehicle were added to each well (25 μl of a 4× solution) and allowed to equilibrate for 20 minutes at room temperature. The plates were then placed in the FLIPR and a baseline fluorescence measurement (excitation at 488 nm and emission at 510-570 nm) was obtained for 10 seconds before a 100 μl/well agonist or vehicle addition. […] Fluorescence was measured for an additional 2 minutes at 1 second intervals after agonist addition. A final addition of ionomycin (5 μM, final concentration) was made to each well of the FLIPR test plate to establish cell viability and maximum fluorescence of dye-bound cytosolic calcium. […]

For a further data set, the target named is T2, rat P2X3 receptor (Rattus norvegicus, UniProt P49654).
T2 construct: expressed in transfected cells; host or cells: CHO-K1
T2 sequence (P49654 1-397): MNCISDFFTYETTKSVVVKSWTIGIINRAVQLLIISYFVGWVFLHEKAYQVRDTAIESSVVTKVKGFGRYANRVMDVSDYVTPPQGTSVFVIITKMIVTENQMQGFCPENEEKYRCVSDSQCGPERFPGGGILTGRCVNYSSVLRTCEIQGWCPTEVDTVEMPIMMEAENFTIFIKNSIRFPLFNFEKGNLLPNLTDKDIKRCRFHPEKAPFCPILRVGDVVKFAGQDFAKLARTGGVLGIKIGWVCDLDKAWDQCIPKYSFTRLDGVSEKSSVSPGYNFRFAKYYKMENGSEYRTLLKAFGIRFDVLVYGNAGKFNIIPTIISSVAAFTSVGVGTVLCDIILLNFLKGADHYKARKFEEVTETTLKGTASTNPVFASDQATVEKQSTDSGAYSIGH
In words: P2X3 FLIPR (Fluorometric Imaging Plate Reader) assay. Particulars: CHO-K1 cells transfected with rat P2X3; agonist α,β-meATP 1 μM; FLIPR calcium fluorescence. It counts as cell-based. How it is done: as §1, §2

Data set [1] can be described thus: Determination of pharmacokinetic parameters after oral gavage of prodrug. Particulars: plasma; prodrug dosed orally by gavage, dose equivalent to 0.127 mmol; hplc. It counts as in vivo, dogs. How it is done: Groups of three dogs were used for each dose level of an experimental compound and one (1) non-cannulated dog was used as a vehicle control. Animals were allowed normal access to chow and water throughout the experiment. The prodrug N-[4-amino-5-(5-iodo-2-isopropyl-4-methoxy-phenoxy)-pyrimidin-2-yl]-2-dipropylamino-acetamide was formulated as an aqueous solution or an aqueous suspension and a dose equivalent to (0.127 mmol) was administered orally by gavage. A blood sample (0.3 mL) was collected from the […] at 0.5, 1, 2, 3, 4, 6 and 8 hours after via the jugular cannula. A sample of at least 0.3 mL of blood was withdrawn from the untreated animals 3 hours after dosing. After 24 hours from dosing, a blood sample was collected from all treated and control animals. Potassium oxalate/NaF was added to the samples which were stored on ice during sampling procedure. The samples were spun in a refrigerated centrifuge at −4° C. as soon as possible and the plasma samples were stored −20° C. immediately after centrifugation and later transferred to a −80° C. freezer until analysis. The concentration of the prodrug N-[4-amino-5-(5-iodo-2-isopropyl-4-methoxy-phenoxy)-pyrimidin-2-yl]-2-dipropylamino-acetamide and the parent compound 5-(5-Iodo-2-isopropyl-4-methoxy-phenoxy)-pyrimidine-2,4-diamine was determined by hplc.

For `COc1cc(C(C)C)c(Oc2cnc(NC(=O)C(C)C)nc2N)cc1I` [N-[4-Amino-5-(5-iodo-2-isopropyl-4-methoxy-phenoxy) -pyrimidin-2-yl]-isobutyramide], the “pIC50 for the P2X2/3 receptor” value at human P2X2/3 receptor was roughly 7.4. Further, the “pIC50 for the P2X3 receptor” value at rat P2X3 receptor is recorded as “approximately 7.8”.

Compound `COc1cc(C(C)C)c(Oc2cnc(NC(=O)CNC3CCCC3)nc2N)cc1I` [Compound 3, N-[4-Amino-5-(5-iodo-2-isopropyl-4-methoxy-phenoxy)-pyrimidin-2-yl]-2-cyclopentylamino-acetamide] displayed a melting point of 176.5 to 178 °C.

`CCCN(CCC)CC(=O)Nc1ncc(Oc2cc(I)c(OC)cc2C(C)C)c(N)n1` [Compound 2, N-[4-Amino-5-(5-iodo-2-isopropyl-4-methoxy-phenoxy)-pyrimidin-2-yl]-2-dipropylamino-acetamide] registered a melting point of 129 to 131 °C. Also, in data set [1], the “AUC of the prodrug” value came to 21.1 ng·h/mL and the “Cmax of the prodrug” value is 15.2 ng/mL.
